In patent US9241976B2, “Use of HDL-related molecules to treat and prevent proinflammatory conditions” (THE REGENTS OF THE UNIVERSITY OF CALIFORNIA, priority 2011, dated 2016):
Square brackets hold non-standard residues; d marks the D form. Ends that are not written are not given here. Peptide text beside a SMILES is read from it. * marks the point of attachment. Cbz = O=C(OCc1ccccc1)*; Aib = CC(C)(N)C(=O)O

Experiments:
NIH3T3 cells [1] = assay: NIH3T3 cell viability, MTS assay; type: cell-based; conditions: 10 μg/mL, 48 hours
Experimental: CT26 and NIH3T3 cells (2,000 cells per well) were first cultured in complete medium in 96-well culture plates, and 24 hours later the medium was replaced with serum-free medium. […] Cells were incubated for an additional 48 hours and assayed for viability using MTS assays kit (Promega) according to the manufacturer's protocol.

CT26 cells [2] = assay: Tumor-load study: CT26 flank tumors in BALB/c mice; type: in vivo, mouse; conditions: for flank tumor volume / flank tumor weight: Example 3, 10 mg/kg subcutaneous daily for 15 days
Experimental: 6-week-old BALB/c female mice were given a 100 μL subcutaneous injection of 1×10^6 CT26 cells prepared as a single cell suspension in PBS, and the mice were treated with bHDLor BHDLat 10 mg/kg administered subcutaneously (SQ) daily for 15 days. The mice were sacrificed and tumor weights were measured.
6-week-old BALB/c female mice were given a 100 μl subcutaneous injection of 1×10^6 CT26 cells prepared as a single cell suspension in PBS, treated with peptide at 10 mg/kg by SQ daily for 15 days.
The mice were killed and tumor weights were measured. The tumor volumes were measured using the formula V=½ (L×W^2).
Six-week-old BALB/c female mice were given a […] subcutaneous injection of 1×10^6 CT26 cells prepared as a single cell suspension in PBS, and the mice were treated with sc-4F or L-4F at 10 mg/kg administered subcutaneously daily for 15 days. The mice were sacrificed and tumor weights were measured.

CT26 cells [3] = assay: CT26 cell viability, MTS assay; conditions: for Cell viability reduced by, compared with control: Example 3, CT26 cells, 10 μg/ml, 48 hours; for CT26 cell viability vs vehicle-treated controls: Example 6, MTS assay, within 48 hours of treatment
Experimental: CT26 cell line derived from N-nitroso-N-methyl urethane-induced mouse colon carcinoma of BALB/c origin was purchased from the American Type Culture Collection (ATCC). CT26 cells (2,000 cells per well) were first cultured in complete medium in 96-well culture plates, and 24 hours later the medium was replaced with serum free medium. Following an overnight incubation, the cells were either treated with vehicle (control), or treated with 10 μg/mL of either bHDL. The bHDL were dissolved in H2O. Cells were incubated for an additional 48 hours and assayed for viability using the MTS assays kit (Promega) according to the manufacturer's protocol.
CT26 cell line derived from N-nitroso-N-methyl urethane-induced mouse colon carcinoma of BALB/c origin was purchased from the American Type Culture Collection. CT26 cells (2,000 cells per well) were first cultured in complete medium in 96-well culture plates, and 24 hours later the medium was replaced with serum-free medium. Following an overnight incubation, the cells were either treated with vehicle (control) or treated with 10 mg/mL of either L-4F or G* peptide. The peptides were dissolved in H2O. Cells were incubated for an additional 48 hours and assayed for viability using the MTS assay kit (Promega) according to the manufacturer's protocol.

HIF-1α = HIF-1α protein expression in human ovarian cancer cell lines, Western blot; type: cell-based; conditions: OV2008 cells; MG-132 10 μM 3 h, L-4F 10 μg/ml 1 h, insulin 200 nM 4 h
Experimental: OV2008 cells were cultured in RPMI 1640 media with 10% fetal bovine serum, penicillin (100 U/ml), streptomycin (100 μg/ml), 1× minimal essential medium nonessential amino acid solution (Invitrogen, Carlsbad, Calif.), and insulin (0.25 U/ml) (Invitrogen). CAOV-3 cells were cultured in complete media consisting of Dulbecco's modified Eagle's medium with high glucose and L-glutamine (2 mM), 10% fetal bovine serum, penicillin (100 U/ml), streptomycin (100 μg/ml), and insulin (0.02 U/ml). To create hypoxic conditions, cells were transferred to a hypoxic chamber (model 3130; Thermo Fisher Scientific, Waltham, Mass.), where they were maintained at 37° C. in an atmosphere containing 5% CO2, 1% O2, and 94% N2. L-4F (the peptide Ac-D-W-F-K-A-F-Y-D-K-V-A-E-K-F-K-E-A-F-NH2 (SEQ ID NO: 12) synthesized from all L amino acids) was dissolved in water at 1 mg/ml (freshly prepared every time) and used between 1 and 10 μg/ml. L-5F was synthesized by Peptisyntha Inc. (Torrance, Calif.), dissolved in ABCT buffer (50 mM ammonium bicarbonate, pH 7.0, containing 0.1 mg/ml Tween 20) at 1 mg/ml, and diluted to the required concentrations before use. Cobalt chloride (CoCl2), insulin, cycloheximide (CHX), and N-(benzyloxycarbonyl)leucinylleucinylleucinal-Z-Leu-Leu-Leu-al (MG-132) were purchased from Sigma-Aldrich (St. Louis, Mo.). LPA (Avanti Polar Lipids, Alabaster, Ala.) in chloroform was dried as recommended by the manufacturer, dissolved in ethanol at a concentration of 20 mM as a stock solution, and diluted to the required concentrations in the corresponding cell culture media before use.
Western blot analyses were performed as described previously (Gao et al., 2011). In brief, cell lysates were collected in a lysis buffer containing 0.1 MNaCl, 5 mM EDTA, 50 μM sodium orthovanadate, 1% Triton X-100, and protease inhibitor tablet (Roche Diagnostics, Indianapolis, Ind.) in 50 mM Tris buffer, pH 7.5, loaded onto 4 to 12% Bis-Tris gel (Invitrogen), transferred to polyvinylidene difluoride membrane, and incubated with the appropriate antibodies. Anti-pThr^202/Tyr^204-Erk, anti-Erk, anti-pThr^389-p70 S6 kinase, anti-p70 S6 kinase, anti-pSer^473-Akt, and anti-Akt antibodies were purchased from Cell Signaling Technology (Danvers, Mass.); mouse anti-human HIF-1α antibody was purchased from BD Pharmingen (San Diego, Calif.); rabbit anti-mouse HIF-1α antibody was purchased from Abcam Inc. (Cambridge, Mass.); and anti-GAPDH antibody was purchased from Santa Cruz Biotechnology Inc. (Santa Cruz, Calif.).

CT26 cells [4] = assay: Pulmonary metastasis in vivo: CT26 lung tumors in BALB/c mice; design: species or system mouse; conditions: CT26 via tail vein
Experimental: BALB/c mice were intravenously injected with 2×10^4 CT26 cells in 100 μL of PBS via tail vein injection and the mice were treated with bHDL at 10 mg/kg/day administered SQ for 3 weeks; or treated with bHDL at 100 mg/kg/day administered in a chow diet for 3 weeks. After 3 weeks treatment, the mice were sacrificed; lungs were harvested, weighed and fixed with Bouin's solution (Sigma). Tumor nodules on the lung surface were counted.
BALB/c mice were intravenously injected with 2×10^4 CT26 cells in […] of PBS via tail vein injection and the mice were treated with L-4F or sc-4F at 10 mg/kg/d administered subcutaneously for 3 weeks, or treated with sc-4F or L-4F or G* peptide at 100 mg/kg/d administered in a chow diet for 3 weeks. After 3 weeks treatment, the mice were sacrificed; lungs were harvested, weighed, and fixed with Bouin solution (Sigma). Tumor nodules on the lung surface were counted.

APC^min/+ mice = APC^min/+ mice study, intestinal tumors; type: in vivo; conditions: C57BL/6J-APC^min/+ mice; 100 mg/kg/d in mouse chow for 8 weeks
Experimental: 6-week-old APC^Min/+ male mice on a C57BL/6J background were treated with bHDL 100 mg/kg/day administered in a chow diet. After 8 weeks treatment, mice were sacrificed. The entire intestine was immediately removed, fixed in formalin and 70% ethanol. The intestine was opened and examined under a dissecting microscope to count and measure the tumors.
Six-week-oldAPC^min/+ male mice on a C57BL/6J background were treated with L-4F or sc-4F at 100 mg/kg/d administered in a chow diet. After 8 weeks treatment, mice were sacrificed. The entire intestine was immediately removed, fixed in formalin and 70% ethanol. The intestine was opened and examined under a dissecting microscope to count and measure the tumors.

NIH3T3 cells [5] = assay: UV-induced cell death, NIH3T3 cell viability; type: cell-based; conditions: pre-treatment 10 μg/ml for 24 hrs; UV 5, 10, 20 mJ/cm^2
Experimental: NIH 3T3 ([…]) ells were seeded in 96 well plates in 4 separate plates. After 24 hrs, cells were starved overnight. Apo A-l was used at a concentration (10 μg/ml) to treat the cells for 24 hrs. After treatment of cells were washed with PBS. One plate was used as a control without UV treatment. The remaining three plates were used for UV treatment at 5, 10, and 20 mJ/cm^2. Following UV treatment, cells were given complete media and were cultured for another 24 hrs. Cell viability was measured for all the plates as described previously (Ganapathy E, et al., 2011, D-4F, an apoA-1 mimetic peptide inhibits proliferation and tumorigenicity of epithelial ovarian cancer cells by upregulating the antioxidant enzyme MnSOD, Int J Cancer 130:1071-1081).

[6] = 10 mg/kg/d subcutaneously for 3 weeks
[7] = 100 mg/kg/d in chow diet for 3 weeks

CC(=O)N[C@@H](CC(C)C)C(=O)N[C@@H](CCCNC(=N)N)C(=O)N[C@@H](CCCCN)C(=O)N[C@@H](CC(C)C)C(=O)N[C@@H](CCCNC(=N)N)C(=O)N[C@@H](CCCCN)C(=O)N[C@@H](CCCNC(=N)N)C(=O)N[C@@H](CC(C)C)C(=O)N[C@@H](CC(C)C)C(=O)N[C@@H](CCCNC(=N)N)C(=O)N[C@@H](CC(=O)O)C(=O)N[C@@H](Cc1c[nH]c2ccccc12)C(=O)N[C@@H](CC(C)C)C(=O)N[C@@H](CCCCN)C(=O)N[C@@H](C)C(=O)N[C@@H](Cc1ccccc1)C(=O)N[C@@H](Cc1ccc(O)cc1)C(=O)N[C@@H](CC(=O)O)C(=O)N[C@@H](CCCCN)C(=O)N[C@H](C(=O)NC(C)(C)C(=O)N[C@@H](CCC(=O)O)C(=O)N[C@@H](CCCCN)C(=O)N[C@@H](CC(C)C)C(=O)N[C@@H](CCCCN)C(=O)N[C@@H](CCC(=O)O)C(=O)NC(C)(C)C(=O)N[C@@H](Cc1ccccc1)C(N)=O)C(C)C [28AA-2, LRKLRKRLLRDWLKAFYDKV-Aib-E-K-L-K-E-Aib-F] (HELM PEPTIDE1{[ac].L.R.K.L.R.K.R.L.L.R.D.W.L.K.A.F.Y.D.K.V.[Aib].E.K.L.K.E.[Aib].F.[am]}$$$$V2.0; N-terminus and C-terminus assumed)
NIH3T3 cell viability (NIH3T3 cells [1]): not affected

CC(=O)N[C@@H](CC(=O)O)C(=O)N[C@@H](Cc1c[nH]c2ccccc12)C(=O)N[C@@H](Cc1ccccc1)C(=O)N[C@@H](CCCCN)C(=O)N[C@@H](C)C(=O)N[C@@H](Cc1ccccc1)C(=O)N[C@@H](Cc1ccc(O)cc1)C(=O)N[C@@H](CC(=O)O)C(=O)N[C@@H](CCCCN)C(=O)N[C@H](C(=O)NC(C)(C)C(=O)N[C@@H](CCC(=O)O)C(=O)N[C@@H](CCCCN)C(=O)N[C@@H](Cc1ccccc1)C(=O)N[C@@H](CCCCN)C(=O)N[C@@H](CCC(=O)O)C(=O)NC(C)(C)C(=O)N[C@@H](Cc1ccccc1)C(N)=O)C(C)C [L-4F2, Ac-D-W-F-K-A-F-Y-D-K-V-Aib-E-K-F-K-E-Aib-F-NH2] (HELM PEPTIDE1{[ac].D.W.F.K.A.F.Y.D.K.V.[Aib].E.K.F.K.E.[Aib].F.[am]}$$$$V2.0)
NIH3T3 cell viability (NIH3T3 cells [1]): not affected | flank tumor volume (CT26 cells [2]): 197 mm^3 | flank tumor weight (CT26 cells [2]): 118 mg | Cell viability reduced by, compared with control (CT26 cells [3]): more than 30% | CT26 cell viability vs vehicle-treated controls (CT26 cells [3]): reduced cell viability

CC(C)C[C@@H](C=O)NC(=O)[C@H](CC(C)C)NC(=O)[C@H](CC(C)C)NC(=O)OCc1ccccc1 [MG-132, N-(benzyloxycarbonyl)leucinylleucinylleucinal-Z-Leu-Leu-Leu-al, reference compound] (Cbz-Leu-Leu-Leu-aldehyde)
effect on the L-4F inhibition of insulin-mediated HIF-1α expression (HIF-1α): led to a reversal of the inhibitory effect of L-4F

Ac-D-W-F-A-K-D-Y-F-K-K-A-F-V-E-E-F-A-K-NH2 (Ac-DWFAKDYFKKAFVEEFAK-NH2) [sc-4F, reference compound]
flank tumor volume (CT26 cells [2]): 555 mm^3 | flank tumor weight (CT26 cells [2]): 273 mg | flank tumor weights (CT26 cells [2]; Example 5, 10 mg/kg subcutaneously daily for 15 days): 778 mg | lung weights (CT26 cells [4]; [6]): 280 mg | tumor numbers counted on the lung surface (CT26 cells [4]; [6]): 33 | lung weights (CT26 cells [4]; [7]): 296 mg | tumor numbers on the lung surface (CT26 cells [4]; [7]): 21 | numbers of tumors of diameter 1-3 mm (APC^min/+ mice): 56.5 | numbers of tumors of diameter >3 mm (APC^min/+ mice): 12.8 | total tumor numbers in the intestinal tract, percent of the control (APC^min/+ mice): 100%

Ac-LRKLRKRLLRDWLKAFYDKVAEKLKEAF-NH2 [28AA, LRKLRKRLLRDWLKAFYDKVAEKLKEAF, reference compound]
NIH3T3 cell viability (NIH3T3 cells [1]): not affected | flank tumor weight (CT26 cells [2]): 188 mg | Cell viability reduced by, compared with control (CT26 cells [3]): 70%

ApoA-II: a protein that is also associated with HDL like apoA-I [reference compound]
UV-induced cell death (cell viability) (NIH3T3 cells [5]): did not prevent UV-induced cell death

ApoA-l: full-length and unmodified ApoA-I, typically human, a 28.2 kDa protein of 244 amino acids
UV-induced cell death (cell viability) (NIH3T3 cells [5]): protects NIH3T3 cells from UV-induced cell death

K4,15-4F2: SEQ ID NO: 28; K4,15-4F further modified with Aib substitution for alanine at positions 11 and 17 (DWFRAFYDKV[Aib]EKFRE[Aib]F)
CT26 cell viability vs vehicle-treated controls (CT26 cells [3]): reduced cell viability

K4,15-4F: SEQ ID NO: 27; based on K14,15 peptides of Nayyar et al., lysines substituted with arginines at residues 4 and 15 (DWFRAFYDKVAEKFREAF; synthetic peptide mimetic)
CT26 cell viability vs vehicle-treated controls (CT26 cells [3]): reduced cell viability

LRKLRKRLLR LVGRQLEEFL (LRKLRKRLLRLVGRQLEEFL; synthetic peptide mimetic) [20AA]
CT26 cell viability vs vehicle-treated controls (CT26 cells [3]): reduced cell viability
